Assay results taken from PMC4310642 (Journal of Medicinal Chemistry, 2014).

Tests used:
[1] = biological target: PKCδ C1b domain N7R mutant (Mus musculus, UniProt P28867, N237R); experiment: Competitive [20-3H]PDBu binding to GST-C1b domain, N7R
[2] = test system: PKCδ C1b domain S10R mutant; format: binding
[3] = biological target: PKCδ C1b domain P11R mutant (Mus musculus, UniProt P28867, P241R); experiment: Competitive [20-3H]PDBu binding to GST-C1b domain, P11R
[4] = biological target: PKCδ C1b domain N7R/S10R/L20R triple mutant (Mus musculus, UniProt P28867, L250R/N237R/S240R); experiment: Competitive [20-3H]PDBu binding to GST-C1b domain, N7R/S10R/L20R
Chain of PKCδ C1b domain N7R/S10R/L20R triple mutant (P28867 230-280 N237R/S240R/L250R): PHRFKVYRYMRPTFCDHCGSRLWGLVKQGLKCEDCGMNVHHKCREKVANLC

Chain of PKCδ C1b domain N7R mutant (P28867 230-280 N237R): as the sequence (P28867 230-280 N237R/S240R/L250R) above, with R11S, R21L counted along it
Chain of PKCδ C1b domain P11R mutant (P28867 230-280 P241R): as the sequence (P28867 230-280 N237R/S240R/L250R) above, with R8N, R11S, P12R, R21L counted along it

Row | Structure (SMILES) | binding to N7R weaker than to the wild-type δC1B domain [1] | binding to S10R compared to the wild-type δC1B domain [2] | binding to P11R weaker than to the wild-type δC1B domain [3] | reduction in binding affinity with the triple mutant N7R/S10R/L20R compared to the wild-type [4]
1 | CCCC(=O)O[C@@H]1[C@@H](C)[C@@]2(O)[C@@H](C=C(CO)C[C@]3(O)C(=O)C(C)=C[C@@H]23)[C@@H]2C(C)(C)[C@]12OC(=O)CCC [PDBu, phorbol 12,13-dibutyrate] | about 5 fold | essentially the same | about 5 fold | 
2 | CC(C)CC(C/C=C1\CC(CO)(COC(=O)C(C)(CO)CO)OC1=O)CC(C)C (stereo not shown) [13-E] |  |  |  | no further loss of affinity
